# Test results: ChEMBL document CHEMBL1201862, “PubChem BioAssay data set” (2004)
#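 48-hour exposure; five concentrations; linearly interpolated endpoints. Abbreviation: GI50, concentration required for 50% inhibition of growth.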 The source made the active and inactive calls. No stated cut-off is given here; in the data, active = GI50 up to about 1.1 µM and inactive = higher.
# Tests used:
# Test in all cases: inhibition of tumour cell growth, NCI panel, 48 h
# [1] = system: A549
# [2] = system: CCRF-CEM
# [3] = system: EKVX
# [4] = system: HCC 2998
# [5] = system: HCT-15
# [6] = system: HOP-62
# [7] = system: HT-29
# [8] = system: MDA-MB-435
# [9] = system: Malme-3M
# [10] = system: NCI-H23
# [11] = system: NCI-H460
# [12] = system: NCI-H522
# [13] = system: OVCAR-3
# [14] = system: RPMI-8226
# [15] = system: SF-539
# [16] = system: SN12C
# [17] = system: SNB-19
# [18] = system: SNB-75
# [19] = system: T47D
# [20] = system: UACC-257
Structure (SMILES),GI50 [1],GI50 [2],GI50 [3],GI50 [4],GI50 [5],GI50 [6],GI50 [7],GI50 [8],GI50 [9],GI50 [10],GI50 [11],GI50 [12],GI50 [13],GI50 [14],GI50 [15],GI50 [16],GI50 [17],GI50 [18],GI50 [19],GI50 [20]
CCCCn1c2c(n(CCCC)c1=S)-c1c(n(CCCC)c(=S)n1CCCC)S[Se][Se]S2,19.7 µM (inactive),0.26 µM (active),6.01 µM (inactive),23.6 µM (inactive),2.94 µM,8.83 µM (inactive),7.23 µM (inactive),4.95 µM (inactive),0.625 µM (active),13.2 µM (inactive),9.95 µM (inactive),0.171 µM (active),0.931 µM (active),2.49 µM (inactive),3.81 µM (inactive),7.11 µM (inactive),5.42 µM (inactive),5.13 µM (inactive),0.294 µM (active),8.87 µM (inactive)
C=CC[C@]1(/C=N/O)CN(S(=O)(=O)CC[Si](C)(C)C)C[C@H]2CC=CC[C@H]21,16 µM (inactive),14 µM (inactive),25.7 µM (inactive),16.7 µM (inactive),38.4 µM,20 µM (inactive),16.2 µM (inactive),29.4 µM (inactive),20.5 µM (inactive),27.7 µM (inactive),18.4 µM (inactive),15.8 µM (inactive),,13.4 µM (inactive),18.2 µM (inactive),16.2 µM (inactive),21.8 µM (inactive),21 µM (inactive),26.4 µM (inactive),21.2 µM (inactive)
CC(C)=NNc1snnc1C(N)=O,> 100 µM (inactive),> 100 µM (inactive),> 100 µM (inactive),> 100 µM (inactive),,> 100 µM (inactive),> 100 µM (inactive),> 100 µM (inactive),> 100 µM (inactive),> 100 µM (inactive),,> 100 µM (inactive),> 100 µM (inactive),> 100 µM (inactive),> 100 µM (inactive),> 100 µM (inactive),> 100 µM (inactive),> 100 µM (inactive),> 100 µM (inactive),> 100 µM (inactive)
O=C(/C=C/c1ccccc1)N1CCCCC1,> 100 µM (inactive),> 100 µM (inactive),> 100 µM (inactive),> 100 µM (inactive),> 100 µM,> 100 µM (inactive),> 100 µM (inactive),> 100 µM (inactive),,> 100 µM (inactive),> 100 µM (inactive),> 100 µM (inactive),> 100 µM (inactive),> 100 µM (inactive),> 100 µM (inactive),> 100 µM (inactive),> 100 µM (inactive),15.2 µM (inactive),> 100 µM (inactive),> 100 µM (inactive)
CCc1nc(N)nc(N)c1-c1ccc([N+](=O)[O-])c(NCc2ccccc2)c1,6.17 µM (inactive),8.85 µM (inactive),11.2 µM (inactive),15.2 µM (inactive),12.3 µM,12.4 µM (inactive),7.91 µM (inactive),14.6 µM (inactive),,14.5 µM (inactive),6.17 µM (inactive),15.9 µM (inactive),13.2 µM (inactive),11.6 µM (inactive),16.3 µM (inactive),20 µM (inactive),16.4 µM (inactive),10.1 µM (inactive),6.47 µM (inactive),12.8 µM (inactive)
O=C(NCCCN(CCCCN(CCCNC(=O)C(F)(F)F)Cc1ccccc1)Cc1ccccc1)C(F)(F)F,24.2 µM (inactive),16.2 µM (inactive),12.6 µM (inactive),4.24 µM (inactive),12.4 µM,,6.49 µM (inactive),18.3 µM (inactive),15.1 µM (inactive),15.5 µM (inactive),10.4 µM (inactive),9.51 µM (inactive),,16 µM (inactive),13.5 µM (inactive),15.4 µM (inactive),13.7 µM (inactive),12.6 µM (inactive),17.7 µM (inactive),5.07 µM (inactive)
CN[C@@H](Cc1cccc2ccccc12)C(=O)N[C@@H](CC(C)C)B(O)O,< 0.01 µM (active),0.00516 µM (active),,< 0.01 µM (active),< 0.01 µM,< 0.011 µM (active),< 0.01 µM (active),< 0.01 µM (active),< 0.01 µM (active),< 0.01 µM (active),< 0.0113 µM (active),< 0.01 µM (active),< 0.01 µM (active),< 0.01 µM (active),< 0.01 µM (active),< 0.01 µM (active),< 0.01 µM (active),< 0.01 µM (active),< 0.01 µM (active),
COc1ccc2c(c1)CCc1c-2n(CCN2CCOCC2)c2ccc(OC)cc12,60.3 µM (inactive),16.4 µM (inactive),,3.92 µM (inactive),41 µM,> 100 µM (inactive),16.1 µM (inactive),> 100 µM (inactive),75.2 µM (inactive),> 100 µM (inactive),40.5 µM (inactive),> 100 µM (inactive),> 100 µM (inactive),63.5 µM (inactive),> 100 µM (inactive),> 100 µM (inactive),,0.0515 µM (active),> 100 µM (inactive),> 100 µM (inactive)
CCCCCn1c(=O)c2c(=O)[nH][nH]c2c2ccccc21,> 100 µM (inactive),> 100 µM (inactive),,> 100 µM (inactive),> 100 µM,> 100 µM (inactive),> 100 µM (inactive),> 100 µM (inactive),> 100 µM (inactive),> 100 µM (inactive),> 100 µM (inactive),> 100 µM (inactive),> 100 µM (inactive),> 100 µM (inactive),> 100 µM (inactive),> 100 µM (inactive),,> 100 µM (inactive),> 100 µM (inactive),> 100 µM (inactive)
CCCCCCCCCCCCCCCCCCNC(=O)C(N)Cc1ccc(OCc2ccccc2)cn1 (stereo not given),19.5 µM (inactive),13.5 µM (inactive),22.6 µM (inactive),11.9 µM (inactive),18.9 µM,19 µM (inactive),16.8 µM (inactive),17.3 µM (inactive),20.6 µM (inactive),16.8 µM (inactive),15.4 µM (inactive),18.7 µM (inactive),25.4 µM (inactive),18.5 µM (inactive),,27.7 µM (inactive),19.8 µM (inactive),27.4 µM (inactive),20.4 µM (inactive),19.1 µM (inactive)
C1C2CC3CC1CC(c1nn4c(C56CC7CC(CC(C7)C5)C6)nnc4s1)(C2)C3,> 100 µM (inactive),> 100 µM (inactive),> 100 µM (inactive),> 100 µM (inactive),> 100 µM,> 100 µM (inactive),> 100 µM (inactive),> 100 µM (inactive),> 100 µM (inactive),> 100 µM (inactive),> 100 µM (inactive),> 100 µM (inactive),> 100 µM (inactive),> 100 µM (inactive),> 100 µM (inactive),> 100 µM (inactive),> 100 µM (inactive),> 100 µM (inactive),> 100 µM (inactive),
